The values that follow come from US12234232B2, “Aromatic heterocyclic compound with kinase inhibitory activity” (SHANGHAI ENNOVABIO PHARMACEUTICALS CO., LTD., priority 2018, dated 2025).

For this assay, the target named is T1, JAK3 protein (Homo sapiens, UniProt P52333).
T1 construct: purchased Carna Biosciences
T1 sequence (P52333 1-1124): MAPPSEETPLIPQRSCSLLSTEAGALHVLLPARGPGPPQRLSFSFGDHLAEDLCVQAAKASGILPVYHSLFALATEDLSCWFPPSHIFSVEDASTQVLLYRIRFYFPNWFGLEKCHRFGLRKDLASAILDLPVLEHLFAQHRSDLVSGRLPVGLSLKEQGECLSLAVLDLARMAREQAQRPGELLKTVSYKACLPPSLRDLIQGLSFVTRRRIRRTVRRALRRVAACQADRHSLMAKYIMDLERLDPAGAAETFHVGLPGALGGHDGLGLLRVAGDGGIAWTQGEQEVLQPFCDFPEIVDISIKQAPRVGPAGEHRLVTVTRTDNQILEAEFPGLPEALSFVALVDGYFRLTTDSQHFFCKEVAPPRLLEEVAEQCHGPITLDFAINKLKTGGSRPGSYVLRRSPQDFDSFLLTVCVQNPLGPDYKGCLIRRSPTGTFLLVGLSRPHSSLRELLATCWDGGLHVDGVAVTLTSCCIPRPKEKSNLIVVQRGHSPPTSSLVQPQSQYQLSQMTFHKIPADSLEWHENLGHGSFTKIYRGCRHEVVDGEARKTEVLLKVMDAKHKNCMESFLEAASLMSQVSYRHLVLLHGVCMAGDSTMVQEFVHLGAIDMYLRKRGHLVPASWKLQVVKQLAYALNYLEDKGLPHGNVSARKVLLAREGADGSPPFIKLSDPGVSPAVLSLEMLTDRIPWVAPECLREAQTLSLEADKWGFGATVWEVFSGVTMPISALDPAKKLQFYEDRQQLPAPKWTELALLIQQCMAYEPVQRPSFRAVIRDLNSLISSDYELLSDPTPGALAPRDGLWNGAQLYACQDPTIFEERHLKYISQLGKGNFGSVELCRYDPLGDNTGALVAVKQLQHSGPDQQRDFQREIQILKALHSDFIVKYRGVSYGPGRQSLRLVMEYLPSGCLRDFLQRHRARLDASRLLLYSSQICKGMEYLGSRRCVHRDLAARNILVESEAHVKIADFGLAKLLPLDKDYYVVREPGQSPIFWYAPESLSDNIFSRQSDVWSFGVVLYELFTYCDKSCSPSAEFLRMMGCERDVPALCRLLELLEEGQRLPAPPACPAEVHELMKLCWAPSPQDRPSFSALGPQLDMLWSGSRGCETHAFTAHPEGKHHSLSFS
Kind of assay: In vitro JAK3 kinase activity assay (HTRF kinEASE TK). The class given is biochemical. The settings on record: 0.75 μM ATP, 25 minutes, room temperature; read-out: IC50 JAK3 (enzyme activity assay). In a few lines: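 Recombinant JAK3 ([…]) with 1 μM biotinylated TK substrate peptide and 0.75 μM ATP, 5 mM MgCl2, 1 mM DTT, 1% DMSO; 25 min at room temperature. HTRF read-out (SA-XL665, TK-antibody, overnight) as 665/620 ratio; compounds 10 μM–0.04 nM, 4-fold, duplicates; IC50 from 4-parameter fit.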

Molecules are shown by their SMILES.

What is called IC50 is the point on the concentration scale where inhibition reaches its midpoint. Consider `CC[C@H](C(=O)Nc1nccc2c(-c3nc(Nc4cn(C)nc4OC)ncc3C)c[nH]c12)N1CCN(C)CC1` [Example 4, (R)—N-(3-(2-((3-Methoxy-1-methyl-1H-pyrazol-4-yl)amino)-5-methylpyrimidin-4-yl)-1H-pyrrolo[2,3-c]pyridin-7-yl)-2-(4-methylpiperazin-1-yl)butanamide], for which the IC50 is < 500 nM.
